What was measured:
Assay in all cases: KiNativ profiling in H3255 cells
Assay type in all cases: cell-based, human
ARAF = system: T1, ARAF; settings: 2.5 µM; Lys2; DLKSNNIFLHEGLTVK
T1 construct: purchased ActivX Biosciences (KiNativ)
Outline: (§1)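 H3255 cells at 80% confluency were treated 2 h with DMSO or 2.5 μM ZNL-0056, then washed, pelleted and snap-frozen. Kinase occupancy was then profiled by KiNativ in lysates.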

CDK6 = system: T2, CDK6; settings: 2.5 µM; Lys2; DLKPQNILVTSSGQIK
T2 construct: purchased ActivX Biosciences (KiNativ)
Outline: as §1

CHK1 = system: T3, CHK1; settings: 2.5 µM; Lys2; DIKPENLLLDER
T3 construct: purchased ActivX Biosciences (KiNativ)
Outline: as §1

CLK3 = system: T4, CLK3; settings: 2.5 µM
T4 construct: purchased ActivX Biosciences (KiNativ)
Outline: as §1

FAK = system: T5, FAK; settings: 2.5 µM
T5 construct: purchased ActivX Biosciences (KiNativ)
Outline: as §1

FYN, SRC, YES = settings: 2.5 µM; Activation Loop; QGAKFPIKWTAPEAALYGR
Outline: as §1

IKKe, TBK1 = settings: 2.5 µM; Lys2; DIKPGNIMR
Outline: as §1

MAP2K1 = system: T6, MAP2K1; settings: 2.5 µM; Lys2; IMHRDVKPSNILVNSR
T6 construct: purchased ActivX Biosciences (KiNativ)
Outline: as §1

MAP2K3 = system: T7, MAP2K3; settings: 2.5 µM
T7 construct: purchased ActivX Biosciences (KiNativ)
Outline: as §1

MAP2K4 = system: T8, MAP2K4; settings: 2.5 µM
T8 construct: purchased ActivX Biosciences (KiNativ)
Outline: as §1

MAP3K2 = system: T9, MAP3K2; settings: 2.5 µM; Lys1; ELAVKQVQFDPDSPETSKEVNALECEIQLLK
T9 construct: purchased ActivX Biosciences (KiNativ)
Outline: as §1

MAPKAPK2, MAPKAPK3 = settings: 2.5 µM; Lys2; DVKPENLLYTSK
Outline: as §1

MELK = system: T10, MELK; settings: 2.5 µM; Lys2; DLKPENLLFDEYHK
T10 construct: purchased ActivX Biosciences (KiNativ)
Outline: as §1

MST2 = system: T11, MST2; settings: 2.5 µM; Lys1; ESGQVVAIKQVPVESDLQEIIK
T11 construct: purchased ActivX Biosciences (KiNativ)
Outline: as §1

MST3 = system: T12, MST3; settings: 2.5 µM; Lys2; DIKAANVLLSEHGEVK
T12 construct: purchased ActivX Biosciences (KiNativ)
Outline: as §1

NDR1, NDR2 = settings: 2.5 µM; Activation Loop; LSDFGLCTGLKK
Outline: as §1

NDR1 = system: T13, NDR1; settings: 2.5 µM
T13 construct: purchased ActivX Biosciences (KiNativ)
Outline: as §1

NEK3 = system: T14, NEK3; settings: 2.5 µM; Activation Loop; SKNIFLTQNGK
T14 construct: purchased ActivX Biosciences (KiNativ)
Outline: as §1

NEK6, NEK7 = settings: 2.5 µM; Lys2; DIKPANVFITATGVVK
Outline: as §1

NEK7 = system: T15, NEK7; settings: 2.5 µM; Lys1; AACLLDGVPVALKK
T15 construct: purchased ActivX Biosciences (KiNativ)
Outline: as §1

PIP4K2A = system: T16, PIP4K2A; settings: 2.5 µM, ATP
T16 construct: purchased ActivX Biosciences (KiNativ)
Outline: as §1

PKD1, PKD2 = settings: 2.5 µM; Lys2; NIVHCDLKPENVLLASADPFPQVK
Outline: as §1

PLK2 = system: T17, PLK2; settings: 2.5 µM; Lys2; DLKLGNFFINEAMELK
T17 construct: purchased ActivX Biosciences (KiNativ)
Outline: as §1

RIPK2 = system: T18, RIPK2; settings: 2.5 µM; Lys1; VQVAVKHLHIHTPLLDSER
T18 construct: purchased ActivX Biosciences (KiNativ)
Outline: as §1

SMG1 = system: T19, SMG1; settings: 2.5 µM, ATP
T19 construct: purchased ActivX Biosciences (KiNativ)
Outline: as §1

SRPK1 = system: T20, SRPK1; settings: 2.5 µM; Lys2; IIHTDIKPENILLSVNEQYIR
T20 construct: purchased ActivX Biosciences (KiNativ)
Outline: as §1

TNK1 = system: T21, TNK1; settings: 2.5 µM; Lys1; SVPVAVKSLR
T21 construct: purchased ActivX Biosciences (KiNativ)
Outline: as §1

ULK3 = system: T22, ULK3; settings: 2.5 µM; Lys1; EVVAIKCVAK
T22 construct: purchased ActivX Biosciences (KiNativ)
Outline: as §1

Wee1 = system: T23, Wee1; settings: 2.5 µM; Lys2; YIHSMSLVHMDIKPSNIFISR
T23 construct: purchased ActivX Biosciences (KiNativ)
Outline: as §1

YES = system: T24, YES; settings: 2.5 µM; Lys1; VAIKTLKPGTMMPEAFLQEAQIMK
T24 construct: purchased ActivX Biosciences (KiNativ)
Outline: as §1

[1] = system: ZC1/HGK, ZC2/TNIK, ZC3/MINK; settings: 2.5 µM; Lys2; DIKGQNVLLTENAEVK
Outline: as §1

ZC2/TNIK = system: T25, ZC2/TNIK; settings: 2.5 µM; Lys1; TGQLAAIKVMDVTGDEEEEIKQEINMLKK
T25 construct: purchased ActivX Biosciences (KiNativ)
Outline: as §1

[2] = ATP Loop, YEIVGNLGEGTFGKVVECLDHAR
[3] = Lys2, FLHENQLTHTDLKPENILFVNSEFETLYNEHK
[4] = Lys1, CIGEGQFGDVHQGIYMSPENPALAVAIKTCK
[5] = Activation Loop, MCDFGISGYLVDSVAKTMDAGCKPYMAPER

Compound `C=CC(=O)Nc1cc(C(=O)Nc2nc3cccc(C)c3n2[C@@H]2CCCCN(C(=O)C=C)C2)cs1` [ZNL-0056] has an Inhibition (ARAF) of 11.3%, an Inhibition (CDK6) of -27.5% and an Inhibition (CHK1) of -8.1%. It also gave an Inhibition (CLK3; [2]) of 10.0%, an Inhibition (CLK3; [3]) of 13.8% and an Inhibition (FAK; Activation Loop, YMEDSTYYKASK) of -16.1%. For the same compound, the Inhibition (FAK; [4]) was -40.2%, the Inhibition (FYN, SRC, YES) was 1.6% and the Inhibition (IKKe, TBK1) was 1.9%. It also gave an Inhibition (MAP2K1) of -10.3%, an Inhibition (MAP2K3; [5]) of 11.1% and an Inhibition (MAP2K3; Lys2, DVKPSNVLINK) of -14.4%. The Inhibition (MAP2K4; Lys1, MVHKPSGQIMAVKR) was 5.7%, the Inhibition (MAP2K4; Lys2, DIKPSNILLDR) was 2.6% and the Inhibition (MAP3K2) was 12.2%. For the same compound, the Inhibition (MAPKAPK2, MAPKAPK3) was -7.9%, the Inhibition (MELK) was 23.0% and the Inhibition (MST2) was -6.8%. The Inhibition (MST3) was -1.1%, the Inhibition (NDR1, NDR2) was -7.6% and the Inhibition (NDR1; Lys1, DTGHVYAMKILR) was 6.1%. For the same compound, the Inhibition (NDR1; Lys2, DIKPDNLLLDSK) was 5.7%, the Inhibition (NEK3) was -5.3% and the Inhibition (NEK6, NEK7) was 0.45%. The Inhibition (NEK7) was -9.3%, the Inhibition (PIP4K2A; AKELPTLKDNDFINEGQK) was -0.9% and the Inhibition (PIP4K2A; YIIKTITSEDVAEMHNILK) was -4.5%. For the same compound, the Inhibition (PKD1, PKD2) was 7.5%, the Inhibition (PLK2) was 18.8% and the Inhibition (RIPK2) was -9.6%. The Inhibition (SMG1; DTVTIHSVGGTITILPTKTKPK) was -33.9%, the Inhibition (SMG1; SYPYLFKGLEDLHLDER) was -11.5% and the Inhibition (SRPK1) was 2.6%. It also gave an Inhibition (TNK1) of 8.0%, an Inhibition (ULK3) of -7.8% and an Inhibition (Wee1) of 13.4%. For the same compound, the Inhibition (YES) was -13.4%, the Inhibition [1] was 9.3% and the Inhibition (ZC2/TNIK) was 32.8%.

`C=CC(=O)Nc1cc(Nc2nccc(-c3cn(C)c4ccccc34)n2)c(OC)cc1N(C)CCN(C)C` [Osimertinib, osimertinib, reference compound] showed an Inhibition (ARAF) of -20.1%, an Inhibition (CDK6) of -8.5% and an Inhibition (CHK1) of 15.0%. The Inhibition (CLK3; [2]) was -8.7%, the Inhibition (CLK3; [3]) was -18.4% and the Inhibition (FAK; Activation Loop, YMEDSTYYKASK) was -25.6%. The Inhibition (FAK; [4]) was 16.5%, the Inhibition (FYN, SRC, YES) was 7.8% and the Inhibition (IKKe, TBK1) was -9.4%. For the same compound, the Inhibition (MAP2K1) was -20.8%, the Inhibition (MAP2K3; [5]) was -14.4% and the Inhibition (MAP2K3; Lys2, DVKPSNVLINK) was -14.5%. For the same compound, the Inhibition (MAP2K4; Lys1, MVHKPSGQIMAVKR) was 12.0%, the Inhibition (MAP2K4; Lys2, DIKPSNILLDR) was 30.7% and the Inhibition (MAP3K2) was -20.3%. The Inhibition (MAPKAPK2, MAPKAPK3) was -28.4%, the Inhibition (MELK) was -15.3% and the Inhibition (MST2) was -13.5%. It also gave an Inhibition (MST3) of -15.5%, an Inhibition (NDR1, NDR2) of -22.1% and an Inhibition (NDR1; Lys1, DTGHVYAMKILR) of -7.9%. The Inhibition (NDR1; Lys2, DIKPDNLLLDSK) was 12.0%, the Inhibition (NEK3) was -0.9% and the Inhibition (NEK6, NEK7) was -8.8%. For the same compound, the Inhibition (NEK7) was -12.2%, the Inhibition (PIP4K2A; AKELPTLKDNDFINEGQK) was -3.2% and the Inhibition (PIP4K2A; YIIKTITSEDVAEMHNILK) was -14.3%. For the same compound, the Inhibition (PKD1, PKD2) was -8.5%, the Inhibition (PLK2) was 10.4% and the Inhibition (RIPK2) was 51.7%. For the same compound, the Inhibition (SMG1; DTVTIHSVGGTITILPTKTKPK) was -6.7%, the Inhibition (SMG1; SYPYLFKGLEDLHLDER) was -44.3% and the Inhibition (SRPK1) was 2.2%. The Inhibition (TNK1) was 58.2%, the Inhibition (ULK3) was -21.6% and the Inhibition (Wee1) was 6.4%. It also gave an Inhibition (YES) of 19.6%, an Inhibition [1] of 16.3% and an Inhibition (ZC2/TNIK) of 19.5%.

From publication PMC11212140, “Molecular Bidents with Two Electrophilic Warheads as a New Pharmacological Modality” (ACS Central Science, 2024)
